Laboratory results from patent US20090275583A1, “ANTIVIRAL COMPOUNDS AND USE THEREOF” (Myriad Genetics, Incorporated, priority 2006, published 2009).
Where two headings read alike, the source gives them in different places.

What was measured:
[1] = test system: HIV-1 laboratory strain, NL4-3; experiment: MT-4 cytoprotection assay; format: cell-based
In short: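 MT-4 cells mock- or batch-infected with NL4-3 (MOI 0.0005) for 2 h, washed, then cultured 4 days with increasing compound concentrations. Viability read by WST-1 tetrazolium reduction: cytoprotection in infected cells, toxicity in mock-infected cells.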

[2] = test system: HIV-1NL4-3; experiment: P4-MAGI assay; format: cell-based
In short: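 Cytotoxicity (TC50, 50% growth inhibition) came from WST-1 in uninfected cells. For antiviral activity, compound at rising concentrations was added immediately after HIV-1NL4-3 inoculation (MOI 1, DEAE-Dextran) of P4 cells, CD4+ HeLa cells expressing β-galactosidase from a minimal HIV-1 LTR upon infection.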

[3] = Human immunodeficiency virus 1, NL43, MT4, 96 h, MT-4 cells, four days incubation, WST-1 readout, read-out: MT4 EC50
[4] = Human immunodeficiency virus 1, 24 h, P4 cells, 24 hour incubation, β-galactosidase expression, read-out: P4-MAGI IC50
[5] = Human immunodeficiency virus 1, text statement, less than about 100 nm, read-out: P4-MAGI assay IC50
[6] = Human immunodeficiency virus 1, NL43, less than about 100 nm, read-out: MT-4 assay EC50 (concentration of compound that reduces the virus induced cytopathic effect by 50%)

SMILES	EC50 [1, 3] [nM]	IC50 [2, 4] [nM]	IC50 [2, 5] [nM]	EC50 [1, 6] [nM]
C=C(C)[C@@H]1CC[C@]2(C(=O)NCCc3cccc(C(=O)NCc4ccc(OCCCn5cncc5C(=O)OC)cc4)c3)CC[C@]3(C)C(CCC4[C@@]5(C)CC[C@H](O)C(C)(C)C5CC[C@]43C)C12 (some centres unmarked) [Example 234]	27	18.5	–	–
C=C(C)[C@@H]1CC[C@]2(C(=O)NCCc3cccc(C(=O)NCC(=O)OCC)c3)CC[C@]3(C)C(CCC4[C@@]5(C)CC[C@H](O)C(C)(C)C5CC[C@]43C)C12 (some centres unmarked) [Example 62]	230	40.4	< 100	–
C=C(C)[C@@H]1CC[C@]2(C(=O)NCCc3cccc(C(=O)N[C@H](C)C4CCC(C(=O)OC)CC4)c3)CC[C@]3(C)C(CCC4[C@@]5(C)CC[C@H](O)C(C)(C)C5CC[C@]43C)C12 (some centres unmarked) [Example 213]	22	38.9	–	–
C=C(C)[C@@H]1CC[C@]2(C(=O)NCCc3cccc(C(=O)NCc4ccc(OCCCN5CCN(S(=O)(=O)CC)CC5)cc4)c3)CC[C@]3(C)C(CCC4[C@@]5(C)CC[C@H](O)C(C)(C)C5CC[C@]43C)C12 (some centres unmarked) [Example 236]	30	19.8	–	–
C=C(C)[C@@H]1CC[C@]2(C(=O)NCCc3cccc(C(=O)NC(Cc4ccc(OCC(=O)O)cc4)C(=O)O)c3)CC[C@]3(C)C(CCC4[C@@]5(C)CC[C@H](O)C(C)(C)C5CC[C@]43C)C12 (some centres unmarked) [Example 146]	3300	197	–	–
C=C(C)[C@@H]1CC[C@]2(C(=O)NCc3cc(C(=O)NCc4ccc(C(=O)O)cc4)ccc3F)CC[C@]3(C)C(CCC4[C@@]5(C)CC[C@H](O)C(C)(C)C5CC[C@]43C)C12 (some centres unmarked) [Example 99]	2.8	20.1	< 100	< 100
C=C(C)[C@@H]1CC[C@]2(C(=O)NCCc3cccc(C(=O)NCc4ccc(C(=O)O)cn4)c3)CC[C@]3(C)C(CCC4[C@@]5(C)CC[C@H](O)C(C)(C)C5CC[C@]43C)C12 (some centres unmarked) [Example 76]	89	10.4	< 100	< 100
C=C(C)[C@@H]1CC[C@]2(C(=O)NCc3cccc(C(=O)NCc4cccc(C(=O)O)c4)c3)CC[C@]3(C)C(CCC4[C@@]5(C)CC[C@H](O)C(C)(C)C5CC[C@]43C)C12 (some centres unmarked) [Example 6]	71	15.6	< 100	< 100
C=C(C)[C@@H]1CC[C@]2(C(=O)NCc3cccc(C(=O)NCCCCC(=O)O)c3)CC[C@]3(C)C(CCC4[C@@]5(C)CC[C@H](O)C(C)(C)C5CC[C@]43C)C12 (some centres unmarked) [Example 1]	615	49.3	–	–
C=C(C)[C@@H]1CC[C@]2(C(=O)NCCc3cccc(C(=O)NCc4ccc(C(=O)N[C@H](Cc5c[nH]cn5)C(=O)OC)cc4)c3)CC[C@]3(C)C(CCC4[C@@]5(C)CC[C@H](O)C(C)(C)C5CC[C@]43C)C12 (some centres unmarked) [Example 170]	5	10	–	–
C=C(C)[C@@H]1CC[C@]2(C(=O)NCCc3ccc(F)c(C(=O)NCc4ccc(C(=O)OC)cn4)c3)CC[C@]3(C)C(CCC4[C@@]5(C)CC[C@H](O)C(C)(C)C5CC[C@]43C)C12 (some centres unmarked) [Example 261]	8.9	14.5	–	–
C=C(C)[C@@H]1CC[C@]2(C(=O)NCCc3cccc(C(=O)NCc4ccc(C(=O)O)cc4)c3)CC[C@]3(C)C(CCC4[C@@]5(C)CC[C@H](O)C(C)(C)C5CC[C@]43C)C12 (some centres unmarked) [Example 67]	23	7.5	< 100	< 100
C=C(C)[C@@H]1CC[C@]2(C(=O)NCc3cccc(C(=O)NCc4ccc(F)c(C(=O)O)c4)c3)CC[C@]3(C)C(CCC4[C@@]5(C)CC[C@H](O)C(C)(C)C5CC[C@]43C)C12 (some centres unmarked) [Example 27]	73	53.5	< 100	< 100
C=C(C)[C@@H]1CC[C@]2(C(=O)NCCc3cccc(-c4nnc(Cc5ccc(C#N)cc5)o4)c3)CC[C@]3(C)C(CCC4[C@@]5(C)CC[C@H](O)C(C)(C)C5CC[C@]43C)C12 (some centres unmarked) [Example 216]	2700	66.5	–	–
C=C(C)[C@@H]1CC[C@]2(C(=O)NCc3cc(C(=O)NCc4cccc(C(=O)O)c4F)ccc3F)CC[C@]3(C)C(CCC4[C@@]5(C)CC[C@H](O)C(C)(C)C5CC[C@]43C)C12 (some centres unmarked) [Example 186]	830	120	–	–
C=C(C)[C@@H]1CC[C@]2(C(=O)NCCc3cccc(C(=O)NCc4ccc(C(=O)O)cc4F)c3)CC[C@]3(C)C(CCC4[C@@]5(C)CC[C@H](O)C(C)(C)C5CC[C@]43C)C12 (some centres unmarked) [Example 69]	670	11	< 100	–
C=C(C)[C@@H]1CC[C@]2(C(=O)NCCc3cccc(C(=O)NCc4ccc(C(=O)NCCc5cnc[nH]5)cn4)c3)CC[C@]3(C)C(CCC4[C@@]5(C)CC[C@H](O)C(C)(C)C5CC[C@]43C)C12 (some centres unmarked) [Example 272]	12.4	3.1	–	–
C=C(C)[C@@H]1CC[C@]2(C(=O)NCCc3cccc(C(=O)N[C@H](C)C4CCC(C(=O)O)CC4)c3)CC[C@]3(C)C(CCC4[C@@]5(C)CC[C@H](O)C(C)(C)C5CC[C@]43C)C12 (some centres unmarked) [Example 215]	11.5	22	–	–

SMILES	EC50 [1, 3] [nM]	IC50 [2, 4] [nM]	IC50 [2, 5] [nM]	EC50 [1, 6] [nM]
C=C(CSCCO)[C@@H]1CC[C@]2(C(=O)NCCc3cccc(C(=O)NCc4ccc(C(=O)O)cn4)c3)CC[C@]3(C)C(CCC4[C@@]5(C)CC[C@H](O)C(C)(C)C5CC[C@]43C)C12 (some centres unmarked) [Example 267]	46	17.3	–	–
C=C(C)[C@@H]1CC[C@]2(C(=O)NCCc3cccc(C(=O)NCc4ccc(C(=O)N[C@H](CCC(=O)O)C(=O)O)cn4)c3)CC[C@]3(C)C(CCC4[C@@]5(C)CC[C@H](O)C(C)(C)C5CC[C@]43C)C12 (some centres unmarked) [Example 224]	258	35.5	–	–
C=C(C)[C@@H]1CC[C@]2(C(=O)NCCc3cccc(C(=O)NCc4ccccc4O)c3)CC[C@]3(C)C(CCC4[C@@]5(C)CC[C@H](O)C(C)(C)C5CC[C@]43C)C12 (some centres unmarked) [Example 198]	468	57.6	–	–
C=C(C)[C@@H]1CC[C@]2(C(=O)NCc3cc(C(=O)NCCc4ccc(C(=O)OC)cc4)ccc3F)CC[C@]3(C)C(CCC4[C@@]5(C)CC[C@H](O)C(C)(C)C5CC[C@]43C)C12 (some centres unmarked) [Example 96]	3.5	33	< 100	< 100
C=C(C)[C@@H]1CC[C@]2(C(=O)NCc3cccc(C(=O)NCc4ccc(N(C)C)cc4)c3)CC[C@]3(C)C(CCC4[C@@]5(C)CC[C@H](O)C(C)(C)C5CC[C@]43C)C12 (some centres unmarked) [Example 47]	41.3	36.3	< 100	< 100
C=C(C)[C@@H]1CC[C@]2(C(=O)NCCc3cccc(-c4nnc(-c5ccc(C(=O)O)cn5)[nH]4)c3)CC[C@]3(C)C(CCC4[C@@]5(C)CC[C@H](O)C(C)(C)C5CC[C@]43C)C12 (some centres unmarked) [Example 254]	351	69	–	–
C=C(C)[C@@H]1CC[C@]2(C(=O)NCCc3cccc(C(=O)NCc4ccc(C(=O)NC(Cc5c[nH]cn5)C(=O)O)cc4)c3)CC[C@]3(C)C(CCC4[C@@]5(C)CC[C@H](O)C(C)(C)C5CC[C@]43C)C12 (some centres unmarked) [Example 184]	830	104	–	–
C=C(C)[C@@H]1CC[C@]2(C(=O)NCCc3cccc(C(=O)NCc4ccc(C(=O)N5CCNC(C(=O)O)C5)cc4)c3)CC[C@]3(C)C(CCC4[C@@]5(C)CC[C@H](O)C(C)(C)C5CC[C@]43C)C12 (some centres unmarked) [Example 194]	16	18	–	–
C=C(C)[C@@H]1CC[C@]2(C(=O)NCCc3cccc(C(=O)NCC4CCC(C(=O)O)CC4)c3)CC[C@]3(C)C(CCC4[C@@]5(C)CC[C@H](O)C(C)(C)C5CC[C@]43C)C12 (some centres unmarked) [Example 211]	19	11.2	–	–
C=C(C)[C@@H]1CC[C@]2(C(=O)NCCc3cccc(C(=O)NCc4ccc(OCCCn5cncc5C(=O)O)c(C(=O)O)c4)c3)CC[C@]3(C)C(CCC4[C@@]5(C)CC[C@H](O)C(C)(C)C5CC[C@]43C)C12 (some centres unmarked) [Example 246]	233	57.3	–	–
C=C(C)[C@@H]1CC[C@]2(C(=O)NCCc3cccc(C(=O)NCCc4ccc(O)cc4)c3)CC[C@]3(C)C(CCC4[C@@]5(C)CC[C@H](O)C(C)(C)C5CC[C@]43C)C12 (some centres unmarked) [Example 147]	30	26.6	–	–
C=C(C)[C@@H]1CC[C@]2(C(=O)NCCc3cccc(C(=O)NCc4ccc(C(=O)N[C@@H](C(=O)OC)[C@H](C)O)cc4)c3)CC[C@]3(C)C(CCC4[C@@]5(C)CC[C@H](O)C(C)(C)C5CC[C@]43C)C12 (some centres unmarked) [Example 161]	15	15	–	–
C=C(C)[C@@H]1CC[C@]2(C(=O)NCCc3cccc(C(=O)NCc4ccc(C(=O)OC)cn4)c3)CC[C@]3(C)C(CCC4[C@@]5(C)CCC(=O)C(C)(C)C5CC[C@]43C)C12 (some centres unmarked) [Example 201]	15.5	28.8	–	–
C=C(C)[C@@H]1CC[C@]2(C(=O)NCc3cccc(C(=O)NCc4cccc(-c5nn[nH]n5)c4)c3)CC[C@]3(C)C(CCC4[C@@]5(C)CC[C@H](O)C(C)(C)C5CC[C@]43C)C12 (some centres unmarked) [Example 21]	180	24.8	–	–
C=C(C)[C@@H]1CC[C@]2(C(=O)NCCc3cccc(C(=O)NCc4ccc(OCCCn5ccnc5)cc4)c3)CC[C@]3(C)C(CCC4[C@@]5(C)CC[C@H](O)C(C)(C)C5CC[C@]43C)C12 (some centres unmarked) [Example 231]	18.5	14.2	–	–
C=C(C)[C@@H]1CC[C@]2(C(=O)NCCc3cccc(C(=O)NCCc4c[nH]c5ccccc45)c3)CC[C@]3(C)C(CCC4[C@@]5(C)CC[C@H](O)C(C)(C)C5CC[C@]43C)C12 (some centres unmarked) [Example 151]	325	85	–	–
C=C(C)[C@@H]1CC[C@]2(C(=O)NCCc3cccc(C(=O)NCc4ccccn4)c3)CC[C@]3(C)C(CCC4[C@@]5(C)CC[C@H](O)C(C)(C)C5CC[C@]43C)C12 (some centres unmarked) [Example 150]	122	24	–	–
